Data: patent US20190125745A1, “TREATMENT AND DIAGNOSIS OF CANCER” (Rgenix, Inc., priority 2014, published 2019)

Assays:
[1] = test system: B16F10 mouse melanoma cells; test: Subcutaneous B16F10 tumor growth in C57BL/6 mice; format: in vivo; conditions: for melanoma primary tumor growth in vivo (B16F10): chow, WO-2010-0138598 Ex. 9 10 or 100 mg/kg/day, SB742881 100 mg/kg/day
Experimental: FIG. 4. Therapeutic LXR Activation Inhibits Melanoma Tumor Growth. […] Representative tumor images shown correspond to tumors extracted at the final day (d12). n=10-18 (A), 8-10 (B). (C-E) Primary tumor growth by 1×10^6 MeWo (C), […] SK-Mel-334.2 (D), and 2×10^6 SK-Mel-2 (E) human melanoma cells subcutaneously injected into immunocompromised mice. […] Tumor images shown correspond to last day of measurements. n=6-34 (C), 8 (D), 5 (E). (F) 5×10^4 B16F10 cells were injected subcutaneously into C57BL/6-WT mice. Upon tumor growth to 150 mm^3, mice were fed continuously with a control chow or a chow containing GW3965 (150 mg/kg), and tumor growth was measured daily. n=6-13. […] Tumor volume was calculated as (small diameter)^2×(large diameter)/2. […] Scale bars, 5 mm (A-D), 50 μm (J, K), 25 μm (L).
The mice were palpated daily for tumor formation and after detection of tumors measuring […] in volume, the mice were assigned to a control chow or a chow containing each respective LXR agonist: LXR-623 (20 mg/kg/day), WO-2007-002563 Ex. 19 (100 mg/kg/day), WO-2010-0138598 Ex. 9 (10 mg/kg/day or 100 mg/kg/day), or SB742881 (100 mg/kg/day). The LXR drug compounds were formulated in the mouse chow by Research Diets, Inc. Tumor dimensions were measured using digital calipers, and tumor volume was calculated as (small diameter)^2×(large diameter)/2.

[2] = test system: MeWo, HT-144, SK-Mel-2, SK-Mel-334.2 human melanoma cells; test: Cell invasion assay (trans-well matrigel); format: cell-based; conditions: 1 μM, 72 hours; for inhibiting cancer progression phenotypes (cell invasion, endothelial recruitment): MeWo cells, versus lower potency LXR agonists
Text: FIG. 2. Activation of LXRβ Signaling Suppresses Melanoma Cell Invasion and Endothelial Recruitment. (A) Heat-map depicting microarray-based expression levels of LXR and RXR isoforms in the NCI-60 melanoma cell line collection. The heat map for these genes is extracted from the larger nuclear hormone receptor family heat map (FIG. 3). Color-map key indicates the change in standard deviations for the expression value of each receptor relative to the average expression value of all microarray-profiled genes (>39,000 transcript variants) in each cell line. (B) Cell invasion by 1×10^5 MeWo, 5×10^4 HT-144, 5×10^5 SK-Mel-2, and 5×10^4 SK-Mel-334.2 human melanoma cells. Cells were treated with DMSO, GW3965, T0901317, or Bexarotene at 1 μM for 72 hours and subjected to a trans-well matrigel invasion assay. n=4-8. (C) 5×10^4 MeWo, HT-144, SK-Mel-2, and SK-Mel-334.2 human melanoma cells were tested for their ability to recruit 1×10^5 endothelial cells in a trans-well migration assay, following treatment of the melanoma cells with DMSO, GW3965, T0901317, or Bexarotene at 1 μM for 72 hours. n=4-8. […] Scale bar, 50 μm. *p<0.05, **p<0.01, ***p<0.001, ****p<0.0001.
The cell invasion assay was performed as previously described in detail (Pencheva et al., 2012) using a trans-well matrigel invasion chamber system (354480, BD Biosciences). In brief, various melanoma cells were cultured in the presence of DMSO, GW3965, T0901317, or Bexarotene at 1 μM for 56 hours, after which melanoma cells were switched to starvation media (0.2% FBS) for 16 hours in the presence of each drug. Following starvation, cells were seeded into matrigel-coated trans-well inserts, and the invasion assay was allowed to proceed for 24 hours at […]. For ApoE antibody neutralization experiments, 40 μg/mL 1 D7 anti-ApoE blocking antibody (Heart Institute, University of Ottawa, Ottawa, Canada) or […] anti-IgG control antibody (AB-108-C, R&D Systems, Minneapolis, Minn.) was added to each trans-well insert at the start of the assay.
The cells were then serum starved for 16 hours in 0.2% FBS media in the presence of each corresponding drug or DMSO. Following serum starvation, the cells were subjected to the trans-well invasion assay using a matrigel invasion chamber system (354480, BD Biosciences). Invasion chambers were pre-equilibrated prior to the assay by adding 0.5 mL of starvation media to the top and bottom wells. Meanwhile, cancer cells were trypsinized and viable cells were counted using trypan blue. Cancer cells were then resuspended at a concentration of 2×10^5 cells/1 mL starvation media, and 0.5 mL of cell suspension, containing 1×10^5 cells, was seeded into each trans-well. The invasion assay was allowed to proceed for 24 hours at 37° C. […] Following fixation, the inserts were washed in PBS, cut out, and mounted onto slides using VectaShield mounting medium containing DAPI nuclear stain (H-1000, Vector Laboratories). The basal side of each insert was imaged using an inverted fluorescence microscope (Zeiss Axiovert 40 CFL) at 5× magnification, and the number of DAPI-positive cells was quantified using ImageJ.

[3] = test system: ApoE expression; test: ApoE expression by qRT-PCR in human melanoma cells
Experimental: (A-B) Parental MeWo cells were incubated in the presence of DMSO or GW3965 at the indicated concentrations. After 48 hours, total RNA was extracted, and the levels of ApoE (A) and DNAJA4 (B) were determined by qRT-PCR. n=3. (C) Cell invasion by 1×10^5 parental MeWo cells pre-treated with GW3965 or DMSO for 48 hours. n=6-7. p-values based on a one-sided student's t-test. […] (D) Endothelial recruitment by 5×10^4 parental MeWo cells pre-treated with GW3965 or DMSO for 48 hours. n=6-7. p-values based on a one-sided student's t-test. (E) Mice were fed with grain-based chow diet containing GW3965 (20 mg/kg) or a control diet. After 10 days, 4×10^4 parental MeWo cells were tail-vein injected into mice, and the mice were continuously fed with GW3965-containing chow or a control diet throughout the experiment.
(A-C) MeWo (A), HT-144 (B), and WM-266-4 (C) human melanoma cells were treated with GW3965 or T0901317 at the indicated concentrations for 48 hours, and the expression levels of ApoE were analysed by qRT-PCR. n=3. (D) Extracellular ApoE protein levels, quantified by ELISA, in serum-free conditioned media collected from HT-144 human melanoma cells treated with DMSO, GW3965, or T0901317 at 1 μM for 72 hours. n=3-4. […] (I-J) Relative ApoE expression, quantified by qRT-PCR, in MeWo (I) and HT-144 (J) cells transduced with a control shRNA or shRNAs targeting LXRα or LXRβ and subsequently treated with DMSO, GW3965, or T0901317 at 1 μM for 48 hours. n=3-9. (K) Extracellular ApoE protein levels, measured by ELISA, in serum-free conditioned media harvested from HT-144 cells transduced with a control shRNA or an shRNA targeting LXRα or LXRβ and treated with DMSO or GW3965 at 1 μM for 72 hours. n=3.
RNA was extracted from whole cell lysates using the Total RNA Purification Kit (17200, Norgen, Thorold, Canada). 600 ng of total RNA was then reverse transcribed into cDNA using the cDNA First-Strand Synthesis Kit (18080-051, Invitrogen), and quantitative real-time PCR amplification was performed as previously described (Pencheva et al., 2012) using an ABI Prism 7900HT Real-Time PCR System (Applied Biosystems, Austin, Tex.). […]
For every sample, 600 ng of RNA was reverse transcribed into cDNA using the cDNA First-Strand Synthesis kit (Invitrogen). […] Each reaction was carried out in quadruplicates, and ApoE mRNA expression levels were measured by quantitative real-time PCR amplification using an ABI Prism 7900HT Real-Time PCR System (Applied Biosystems). The relative ApoE expression was determined using the ΔΔCt method.

[4] = molecular target: T1, LXRα (Homo sapiens, UniProt Q13133); conditions: cited from earlier work
T1 sequence (Q13133 1-447): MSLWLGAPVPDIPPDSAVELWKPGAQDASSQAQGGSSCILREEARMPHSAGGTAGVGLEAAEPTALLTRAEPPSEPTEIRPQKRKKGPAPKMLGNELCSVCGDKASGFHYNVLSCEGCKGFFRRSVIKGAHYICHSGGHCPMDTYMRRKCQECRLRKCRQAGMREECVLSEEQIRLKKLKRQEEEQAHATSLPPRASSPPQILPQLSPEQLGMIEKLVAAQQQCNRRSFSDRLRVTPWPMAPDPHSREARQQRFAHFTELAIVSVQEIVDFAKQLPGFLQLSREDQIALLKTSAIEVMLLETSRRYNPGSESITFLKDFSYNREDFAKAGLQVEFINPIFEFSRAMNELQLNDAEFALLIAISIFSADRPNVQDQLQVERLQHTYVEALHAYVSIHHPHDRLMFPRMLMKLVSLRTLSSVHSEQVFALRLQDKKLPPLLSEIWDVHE

[5] = test system: ApoE promoter; test: ApoE promoter activity assay (luciferase, ME.1/ME.2); format: cell-based, human; conditions: 1 μM
Text: FIG. 11. LXRβ Activation Suppresses Melanoma Invasion and Endothelial Recruitment by Transcriptionally Enhancing Melanoma-Cell ApoE Expression. […] Scale bar, 50 μm.
The ApoE promoter, consisting of a sequence spanning 980 base pairs upstream and 93 base pairs downstream of the ApoEgene, was cloned into a pGL3-Basic vector (E1751, Promega Corporation, Madison, Wis.) upstream of the firefly luciferase gene using NheI and SacI restriction enzymes. Then, multi-enhancer elements 1 (ME.1) and 2 (ME.2) were cloned directly upstream of the ApoE promoter using MluI and […] restriction enzymes. To assess ApoE promoter- and ME.1/ME.2-driven transcriptional activation by LXR agonists, 5×10^4 MeWo cells were seeded into a 24-well plate. […] To assess transcriptional activation by LXRα or LXRβ, 5×10^4 MeWo cells expressing a control shRNA or shRNA targeting LXRα or LXRβ were seeded into a 24-well plate. […] After 24 hours, cells were lysed, and cell lysate was analyzed for firefly and renilla luciferase activity using the Dual Luciferase Assay System (E1960, Promega) and a Bio-Tek Synergy NEO Microplate Reader. Firefly luciferase signal was normalized to renilla luciferase signal and all data are expressed relative to the luciferase activity ratio measured in the DMSO-treated control cells.

Compound | melanoma primary tumor growth in vivo (B16F10) [1] | inhibiting cancer progression phenotypes (cell invasion, endothelial recruitment) [2] | potency of inducing ApoE expression in vitro [3] | EC50 [4] | primary tumor growth in vivo (FIG. 4) ([1]; mouse, in vivo) | ability to upregulate ApoE transcription and protein expression upon melanoma cell depletion of LXRβ, but not LXRα [5] | ability to suppress invasion and endothelial recruitment upon knockdown of melanoma LXRβ, but not LXRα ([2]; MeWo, HT-144)
CC(C)(O)c1cn(-c2ccc(-c3cc(F)c(CO)c(S(C)(=O)=O)c3)cc2F)c(C(C)(C)c2c(Cl)cccc2Cl)n1 [Compound 112] | significantly inhibited | more effective | potently induce |  |  |  | 
CC(C)(O)c1cn(-c2ccc(-c3cccc(S(C)(=O)=O)c3)cc2)c(C(C)(C)c2ccccc2Cl)n1 [Compound 113] |  |  |  | 101 to 1000 nM |  |  | 
CC(CCOc1cccc(CC(=O)O)c1)N(Cc1cccc(C(F)(F)F)c1Cl)CC(c1ccccc1)c1ccccc1 (centres unmarked) [SB742881 109] | significantly inhibited | more effective | potently induce |  |  |  | 
O=S(=O)(c1ccccc1)N(CC(F)(F)F)c1ccc(C(O)(C(F)(F)F)C(F)(F)F)cc1 [TO901317 110] |  |  | potently induce |  | inhibit | abrogated | abrogated
